These results are taken from US20200393377A1, “Microscopy for Rapid Antibiotic Susceptibility Test Using Membrane Fluorescence Staining and Spectral Intensity Ratio” (POCARED Diagnostics LTD., priority 2019, published 2020).

Test [1] has as its system E. coli. Kind of test: MIC by SIR from flow cytometer measurement. Particulars: SIR vs antibiotic concentration. The test is classed as cell-based. As to the method:
The MIC is calculated by plotting the spectral intensity ratio (SIR) as a function of the antimicrobial concentration and approximating it to a step function in the form of
Where a, b, and c are parameters and erf is the error function. The parameters are used to approximate the measured SIR to a step function; a is a scaling parameter, b determines the step slope, and c is the MIC value, or a function of it. The SIR values are used to determine the erf parameters by a best fit approximation.
We measured E. coli exposed to gentamicin at 4 concentration. The MIC was calculated using the spectral intensity ratio (SIR) calculation and step function estimation using MATLAB software.
FIG. 3 provides plots showing the SIR as a function of the antibiotic concentration for the InCell measurement (top) and flow cytometer measurement (bottom). As can been seen from the graphs, their shapes are similar, although the InCell measurement has less data points, and the MIC is 0.5 μg/ml in both cases. Live bacteria population (0 μg/ml) have lower SIR then the dead ones (>0.5 μg/ml). At the MIC (0.5 ug/ml) there is a large increase in the SIR. […] The SIR then decreases at very high (>4 ug/ml) antibiotic concentrations.

Test [2] deals with E. coli. Kind of test: Rapid AST/MIC by membrane fluorescence staining, SIR from IN Cell confocal imaging. Type of test: cell-based. The conditions noted are these: InCell measurement; SIR (610 nm/530 nm) vs antibiotic concentration, step function fit; 2-4 hours antibiotic exposure at 37° C.; Synaptogreen/FM 1-43 dye. As for the experimental part: In general, the method includes blood culture centrifugation, bacterial antimicrobial exposure for 2 to 4 hours, bacteria staining with a single fluorescence dye followed by laser confocal microscopy, and mathematical analysis.
Sample Preparation—Macro Dilution Method • a) Antimicrobial (Gentamicin) stock solutions were prepared according to CLSI recommendations, and were diluted in CAMHB, to a concentration which was 2 fold higher from the highest concentration recommended for each antimicrobial combination (“Class II Special Controls Guidance Document: Antimicrobial Susceptibility Test (AST) Systems”, Aug. […] The images were taken through a green filter (530 nm) and red filter (615 nm) one after the other for each image. • i) images were analyzed using GE In Cell Investigator image analysis software. For each image the following operation were performed; segmentation for identifying the bacteria, for each bacteria the intensity in the green and […] were recorded, and a scatter plot of the bacteria population was plotted (x axis—intensity in the green, y axis—intensity in the red).
To quantify the influence of a certain antimicrobial exposure we define the spectral intensity ratio (SIR) as follows: […]
The MIC is calculated by plotting the spectral intensity ratio (SIR) as a function of the antimicrobial concentration and approximating it to a step function in the form of […]

In general, MIC refers to the lowest concentration that inhibits growth of the organism.

Regarding gentamicin, the MIC in test [1] and in test [2] was 0.5 µg/mL in each case.
